Molecular target: FGFR2 (Homo sapiens, UniProt P21802)
Assay: FGFR2 Kinase Protocol - Condition 2 (Reaction Biology HotSpot radiometric kinase assay, no preincubation)
Format: biochemical
Conditions: poly[Glu:Tyr] (4:1) 0.2 mg/ml, ATP 100 microM, 2 hr room temperature
Procedure, shortened: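 Ten-point, 3-fold compound dilutions were tested against wildtype or V564F FGFR2 with 100 µM ATP (33P-labelled), no preincubation, and 0.2 mg/ml poly[Glu:Tyr] (4:1) substrate. After 2 hr at room temperature, incorporation was read on P81 filter paper; IC50 fitted from activity remaining relative to vehicle.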

Chain of FGFR2 (P21802 22-821): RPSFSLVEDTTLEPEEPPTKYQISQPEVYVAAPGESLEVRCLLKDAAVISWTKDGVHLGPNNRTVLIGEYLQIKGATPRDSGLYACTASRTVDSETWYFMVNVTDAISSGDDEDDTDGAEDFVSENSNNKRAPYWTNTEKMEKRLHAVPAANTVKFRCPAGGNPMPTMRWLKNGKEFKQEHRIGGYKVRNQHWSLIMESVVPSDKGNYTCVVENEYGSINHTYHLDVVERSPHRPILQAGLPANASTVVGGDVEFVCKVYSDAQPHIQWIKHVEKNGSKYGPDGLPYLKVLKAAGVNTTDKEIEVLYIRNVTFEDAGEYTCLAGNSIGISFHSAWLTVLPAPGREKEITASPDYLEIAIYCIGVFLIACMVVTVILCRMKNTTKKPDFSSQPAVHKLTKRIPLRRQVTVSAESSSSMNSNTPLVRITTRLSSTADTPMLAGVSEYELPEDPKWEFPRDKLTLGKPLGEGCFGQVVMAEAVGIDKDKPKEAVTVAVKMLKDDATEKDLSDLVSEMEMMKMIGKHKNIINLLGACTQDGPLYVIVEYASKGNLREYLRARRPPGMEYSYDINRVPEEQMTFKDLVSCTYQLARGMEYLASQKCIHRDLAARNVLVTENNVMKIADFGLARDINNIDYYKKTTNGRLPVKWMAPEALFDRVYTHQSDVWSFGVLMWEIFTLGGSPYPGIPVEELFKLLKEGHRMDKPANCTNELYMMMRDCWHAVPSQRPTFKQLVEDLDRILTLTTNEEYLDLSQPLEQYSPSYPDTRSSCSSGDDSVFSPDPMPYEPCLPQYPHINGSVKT

Q: Which IC50 does the source give for C=CC(=O)N1C[C@@H](n2nc(C#Cc3cc4ncn(CC)c4c(F)c3Cl)c3c(N)ncnc32)C[C@@H]1CC#N [Example 173, 2-[(2R,4S)-4-{4-Amino-3-[2-(6-chloro-1-ethyl-7-fluoro-1,3-benzodiazol-5-yl)ethynyl]pyrazolo[3,4-d]pyrimidin-1-yl}-1-(prop-2-enoyl)pyrrolidin-2-yl]acetonitrile] here?
A: The IC50 was no more than 100 nM.

Q: With C=CC(=O)N1C[C@@H](n2nc(C#Cc3ccc4c(c3)nc(C)n4C)c3c(N)nccc32)C[C@@H]1CC#N [Example 43, 2-((2R,4S)-1-acryloyl-4-(4-amino-3-((1,2-dimethyl-1H-benzo[d]imidazol-5-yl)ethynyl)-1H-pyrazolo[4,3-c]pyridin-1-yl)pyrrolidin-2-yl)acetonitrile] as the compound, how does the IC50 read?
A: The IC50 was no more than 100 nM.

Q: For C=CC(=O)N1C[C@@H](n2nc(C#Cc3c(F)cc4c(ncn4C(F)F)c3F)c3c(N)nccc32)C[C@@H]1COC [Example 65, 1-[(2R,4S)-4-(4-Amino-3-[2-[1-(difluoromethyl)-4,6-difluoro-1,3-benzodiazol-5-yl]ethynyl]pyrazolo[4,3-c]pyridin-1-yl)-2-(methoxymethyl)pyrrolidin-1-yl]prop-2-en-1-one], which IC50 is on record?
A: The IC50 was no more than 100 nM.

Q: How did the IC50 turn out when C=CC(=O)N1CC[C@H](n2nc(C#Cc3cc4ncn(CC)c4cc3F)c3c(N)ncnc32)C1 [Example 152, 1-[(3S)-3-{4-Amino-3-[2-(1-ethyl-6-fluoro-1,3-benzodiazol-5-yl)ethynyl]pyrazolo[3,4-d]pyrimidin-1-yl}pyrrolidin-1-yl]prop-2-en-1-one] was run?
A: Its IC50 is no more than 100 nM.

Q: Which IC50 does the source give for C=CC(=O)N1CC[C@H](n2cc(C#Cc3cc4ncn(CC)c4cc3Cl)c3c(N)ncnc32)C1 [Example 143, (S)-1-(3-(4-Amino-5-((6-chloro-1-ethyl-1H-benzo[d]imidazol-5-yl)ethynyl)-7H-pyrrolo[2,3-d]pyrimidin-7-yl)pyrrolidin-1-yl)prop-2-en-1-one] here?
A: Its IC50 is no more than 100 nM.

Q: With C=CC(=O)N1C[C@@H](n2nc(C#Cc3cc4ncn(C)c4c(F)c3F)c3c(N)nccc32)C[C@@H]1CC#N [Example 159, 2-((2R,4S)-1-Acryloyl-4-(4-amino-3-((6,7-difluoro-1-methyl-1H-benzo[d]imidazol-5-yl)ethynyl)-1H-pyrazolo[4,3-c]pyridin-1-yl)pyrrolidin-2-yl)acetonitrile] as the compound, how does the IC50 read?
A: The IC50 was no more than 100 nM.

Q: For C=CC(=O)N1CC[C@H](n2nc(C#Cc3cc4ncn(C5CC5)c4cc3Cl)c3c(N)ncnc32)C1 [Example 191, 1-[(3S)-3-{4-Amino-3-[2-(6-chloro-1-cyclopropyl-1,3-benzodiazol-5-yl)ethynyl]pyrazolo[3,4-d]pyrimidin-1-yl}pyrrolidin-1-yl]prop-2-en-1-one], which IC50 is on record?
A: The IC50 was no more than 100 nM.

Q: With C=CC(=O)N1C[C@@H](n2nc(C#Cc3cc4ncn(CC)c4cc3F)c3c(N)ncnc32)C[C@@H]1COC [Example 77, 1-[(2R,4S)-4-[4-Amino-3-[2-(1-ethyl-6-fluoro-1,3-benzodiazol-5-yl)ethynyl]pyrazolo[3,4-d]pyrimidin-1-yl]-2-(methoxymethyl)pyrrolidin-1-yl]prop-2-en-1-one] as the compound, how does the IC50 read?
A: Its IC50 is no more than 100 nM.

Q: With C=CC(=O)N1C[C@@H](n2cc(C#Cc3c(Cl)cc4c(ncn4CC)c3F)c3c(N)ncnc32)C[C@@H]1COC [Example 118, 1-1-[(2R,4S)-4-[4-Amino-5-[2-(6-chloro-1-ethyl-4-fluoro-1,3-benzodiazol-5-yl)ethynyl]pyrrolo[2,3-d]pyrimidin-7-yl]-2-(methoxymethyl)pyrrolidin-1-yl]prop-2-en-1-one] as the compound, how does the IC50 read?
A: Its IC50 is no more than 100 nM.

Q: Which IC50 does the source give for C=CC(=O)N1C[C@@H](n2nc(C#Cc3cc4ncn(CC)c4c(F)c3Cl)c3c(N)ncnc32)C[C@@H]1COC [Example 128, 1-[(2R,4S)-4-[4-amino-3-[2-(6-chloro-1-ethyl-7-fluoro-1,3-benzodiazol-5-yl)ethynyl]pyrazolo[3,4-d]pyrimidin-1-yl]-2-(methoxymethyl)pyrrolidin-1-yl]prop-2-en-1-one] here?
A: Its IC50 is no more than 100 nM.

Q: Which IC50 does the source give for C=CC(=O)N1C[C@@H](n2nc(C#Cc3c(F)cc4nn(C)cc4c3F)c3c(N)ncnc32)C[C@@H]1COC [Example 44, 1-((2R,4S)-4-(4-amino-3-((4,6-difluoro-2-methyl-2H-indazol-5-yl)ethynyl)-1H-pyrazolo[3,4-d]pyrimidin-1-yl)-2-(methoxymethyl)pyrrolidin-1-yl)prop-2-en-1-one] here?
A: The IC50 was no more than 100 nM.

Q: With C=CC(=O)N1CC[C@H](n2nc(C#Cc3cc4ncn(C5CC5)c4cc3F)c3c(N)ncnc32)C1 [Example 146, (S)-1-(3-(4-Amino-3-((1-cyclopropyl-6-fluoro-1H-benzo[d]imidazol-5-yl)ethynyl)-1H-pyrazolo[3,4-d]pyrimidin-1-yl)pyrrolidin-1-yl)prop-2-en-1-one] as the compound, how does the IC50 read?
A: Its IC50 is no more than 100 nM.

Q: Which IC50 does the source give for C=CC(=O)N1CC[C@H](n2nc(C#Cc3cc4ncn(CC)c4cc3Cl)c3c(N)nccc32)C1 [Example 133, (S)-1-(3-(4-Amino-3-((6-chloro-1-ethyl-1H-benzo[d]imidazol-5-yl)ethynyl)-1H-pyrazolo[4,3-c]pyridin-1-yl)pyrrolidin-1-yl)prop-2-en-1-one] here?
A: The IC50 was no more than 100 nM.

Q: How did the IC50 turn out when C=CC(=O)N1C[C@@H](n2nc(C#Cc3cc4ncn(C)c4cc3Cl)c3c(N)ncnc32)C[C@@H]1COC [Example 90, 1-[(2R,4S)-4-[4-Amino-3-[2-(6-chloro-1-methyl-1,3-benzodiazol-5-yl)ethynyl]pyrazolo[3,4-d]pyrimidin-1-yl]-2-(methoxymethyl)pyrrolidin-1-yl]prop-2-en-1-one] was run?
A: The IC50 was no more than 100 nM.

Q: With C=CC(=O)N1C[C@@H](c2nc(C#Cc3cc4ncn(C5CC5)c4cc3F)c3c(N)nccn23)C[C@@H]1COC [Example 203, 1-[(2R,4S)-4-{8-Amino-1-[2-(1-cyclopropyl-6-fluoro-1,3-benzodiazol-5-yl)ethynyl]imidazo[1,5-a]pyrazin-3-yl}-2-(methoxymethyl)pyrrolidin-1-yl]prop-2-en-1-one] as the compound, how does the IC50 read?
A: The IC50 was no more than 100 nM.

Q: C=CC(=O)N1C[C@@H](n2nc(C#Cc3cc4ncn(CC)c4cc3Cl)c3c(N)nccc32)C[C@@H]1C [Example 169, 1-((2S,4S)-4-(4-amino-3-((6-chloro-1-ethyl-1H-benzo[d]imidazol-5-yl)ethynyl)-1H-pyrazolo[4,3-c]pyridin-1-yl)-2-methylpyrrolidin-1-yl)prop-2-en-1-one] was tested. Which IC50 did it give?
A: The IC50 was no more than 100 nM.

Q: How did the IC50 turn out when C=CC(=O)N1C[C@@H](n2nc(C#Cc3cc4ncn(CC)c4cc3F)c3c(N)nccc32)C[C@@H]1COC(F)(F)F [Example 81, 1-[(2R,4S)-4-[4-Amino-3-[2-(1-ethyl-6-fluoro-1,3-benzodiazol-5-yl)ethynyl]pyrazolo[4,3-c]pyridin-1-yl]-2-[(trifluoromethoxy)methyl]pyrrolidin-1-yl]prop-2-en-1-one] was run?
A: Its IC50 is no more than 100 nM.

Q: How did the IC50 turn out when C=CC(=O)N1CC[C@H](n2nc(C#Cc3cc4ncn(C)c4c(F)c3Cl)c3c(N)nccc32)C1 [Example 148, 1-[(3S)-3-{4-Amino-3-[2-(6-chloro-7-fluoro-1-methyl-1,3-benzodiazol-5-yl)ethynyl]pyrazolo[4,3-c]pyridin-1-yl}pyrrolidin-1-yl]prop-2-en-1-one] was run?
A: The IC50 was no more than 100 nM.

Q: How did the IC50 turn out when C=CC(=O)N1CC[C@H](n2nc(C#Cc3cc4ncn(CC)c4c(F)c3F)c3c(N)ncnc32)C1 [Example 153, 1-[(3S)-3-{4-Amino-3-[2-(1-ethyl-6,7-difluoro-1,3-benzodiazol-5-yl)ethynyl]pyrazolo[3,4-d]pyrimidin-1-yl}pyrrolidin-1-yl]prop-2-en-1-one] was run?
A: The IC50 was no more than 100 nM.

Q: With C=CC(=O)N1C[C@@H](n2nc(C#Cc3c(F)cc4c(ncn4C)c3F)c3c(N)ncnc32)C[C@@H]1COC(F)(F)F [Example 54, 1-[(2R,4S)-4-[4-Amino-3-[2-(4,6-difluoro-1-methyl-1,3-benzodiazol-5-yl)ethynyl]pyrazolo[3,4-d]pyrimidin-1-yl]-2-[(trifluoromethoxy)methyl]pyrrolidin-1-yl]prop-2-en-1-one] as the compound, how does the IC50 read?
A: Its IC50 is no more than 100 nM.

Q: For C=CC(=O)N1C[C@@H](n2nc(C#Cc3ccc4c(c3)ncn4C3CC3)c3c(N)ncnc32)C[C@@H]1CC#N [Example 188, 2-[(2R,4S)-4-{4-Amino-3-[2-(1-cyclopropyl-1,3-benzodiazol-5-yl)ethynyl]pyrazolo[3,4-d]pyrimidin-1-yl}-1-(prop-2-enoyl)pyrrolidin-2-yl]acetonitrile], which IC50 is on record?
A: The IC50 was no more than 100 nM.

Q: C=CC(=O)N1C[C@@H](n2nc(C#Cc3c(F)cc4c(cnn4C)c3F)c3c(N)ncnc32)C[C@@H]1COC [Example 48, 1-((2R,4S)-4-(4-amino-3-((4,6-difluoro-1-methyl-1H-indazol-5-yl)ethynyl)-1H-pyrazolo[3,4-d]pyrimidin-1-yl)-2-(methoxymethyl)pyrrolidin-1-yl)prop-2-en-1-one] was tested. Which IC50 did it give?
A: The IC50 was no more than 100 nM.

Q: C=CC(=O)N1C[C@@H](n2cc(C#Cc3cc4ncn(C)c4cc3F)c3c(N)ncnc32)C[C@@H]1CF [Example 186, 1-((2R,4S)-4-(4-Amino-5-((6-fluoro-1-methyl-1H-benzo[d]imidazol-5-yl)ethynyl)-7H-pyrrolo[2,3-d]pyrimidin-7-yl)-2-(fluoromethyl)pyrrolidin-1-yl)prop-2-en-1-one] was tested. Which IC50 did it give?
A: The IC50 was no more than 100 nM.

Q: With C=CC(=O)N1C[C@@H](n2nc(C#Cc3cc4ncn(CC)c4cc3Cl)c3c(N)nccc32)C[C@@H]1C(F)F [Example 183, 1-((2R,4S)-4-(4-amino-3-((6-chloro-1-ethyl-1H-benzo[d]imidazol-5-yl)ethynyl)-1H-pyrazolo[4,3-c]pyridin-1-yl)-2-(difluoromethyl)pyrrolidin-1-yl)prop-2-en-1-one] as the compound, how does the IC50 read?
A: Its IC50 is no more than 100 nM.

Q: How did the IC50 turn out when C=CC(=O)N1CC[C@H](n2nc(C#Cc3cc4ncn(C5CC5)c4c(F)c3Cl)c3c(N)ncnc32)C1 [Example 190, 1-[(3S)-3-{4-Amino-3-[2-(6-chloro-1-cyclopropyl-7-fluoro-1,3-benzodiazol-5-yl)ethynyl]pyrazolo[3,4-d]pyrimidin-1-yl}pyrrolidin-1-yl]prop-2-en-1-one] was run?
A: The IC50 was no more than 100 nM.

Q: For C=CC(=O)N1C[C@@H](n2nc(C#Cc3ccc4c(c3)nc(C)n4CC)c3c(N)nccc32)C[C@@H]1CC#N [Example 53, 2-[(2R,4S)-4-[4-Amino-3-[2-(1-ethyl-2-methyl-1,3-benzodiazol-5-yl)ethynyl]pyrazolo[4,3-c]pyridin-1-yl]-1-(prop-2-enoyl)pyrrolidin-2-yl]acetonitrile; formic acid], which IC50 is on record?
A: The IC50 was no more than 100 nM.
